What was measured:
Assay type in all cases: cell-based, human
[1] = test system: survivin and full length PARP1 in CW22Rv1; test: Survival proteins after radiation and TRC105; settings: 4Gy radiation and TRC105, 5 days
[2] = test system: 22Rv1 cells; test: COMET assay; settings: irradiated
Experimental: 22Rv1 were pre-treated with 1 μg/ml TRC105 24 hours prior to irradiation with 4 Gy. FIG. 22A) γ-H2AX or p53 bp were imunolocalized at 4, 24, and 48 hours post radiation. Foci per nuclei were quantified (n=100). FIG. 22B) Comet assay was performed 30 minutes and 24 hours following irradiation. The tail moment was quantified (n=50). FIG. 22C) Cell cycle analysis was performed on 22Rv1 at 0, 4, 8, and 24 hours post radiation in the presence of IgG or TRC105 (n=3) in 3 independent experiments. (***p<0.001, ****p<0.0001).

[3] = test system: SIRT1 expression in C4-2B; test: Radiation induced SIRT1 mRNA expression; settings: irradiated
Experimental: (§1) FIG. 21A) C4-2B were irradiated (0, 2, 4, or 6 Gy) and SIRT1 expression measured 72 hours post irradiation. FIG. 21B) C4-2B cells were irradiated (4 Gy) and SIRT1 expression measured 0, 0.5, 4, 8, 24, 48, and 72 hours post-radiation. FIG. 21C) 22Rv1 were pre-treated with 1 μg/ml IgG or TRC105 24 hours prior to irradiation with 4 Gy and compared for relative SIRT1 mRNA expression 72 hours after to irradiation. SIRT1 mRNA was normalized to GAPDH and to 0 Gy control.
(§2) Total RNA was extracted using the RNeasy kit (Qiagen). 1 μg RNA was used for cDNA synthesis using iSCRIPT cDNA synthesis kit (1708891, Bio-Rad). Quantitative RT-PCR was performed with 5 replicates using the Step One Real-Time PCR system (Applied Biosystems). Gene mRNA expression was normalized to GAPDH. Primer sequences can be found in the Table 1. For RNA-sequencing, Ion Proton AmpliSeq Transcriptome RNA Sequencing was performed achieving an average of 3M reads. We mapped an average of 88% of the reads to the human genome with Torrent Suite version 4.4.2.

[4] = test system: SIRT1 expression in 22Rv1; test: Radiation induced SIRT1 mRNA expression; settings: 4 Gy
Experimental: as §1, §2

[5] = test system: mtDNA in 22Rv1 cells; test: Mitochondrial DNA quantitation; settings: radiation in the presence of TRC105; p<0.0001
Experimental: FIGS. 24A-24D depict that PGC1α and mitochondrial biogenesis are regulated by BMP/CD105. 22Rv1 cells were incubated with IgG or TRC105 with or without 4 Gy irradiation. All measurements were made 72 hours post radiation. FIG. 24A) Western blot for whole cell lysate, nuclear and cytoplasmic fractions were independently analyzed for PGC1α expression. Loading controls included β-actin (whole cell), lamin B (nuclear marker), and Rho A (cytoplasm marker). FIG. 24B) Immunofluorescent localization of PGC1α was visualized with DAPI nuclear counterstain. FIG. 24C) mRNA expression of PGC1α target genes, NRF1, MTFA, and CPT1C was measured. mRNA expression was normalized to GAPDH and untreated IgG 0 Gy. FIG. 24D) Mitochondrial DNA (mtDNA) was measured from total DNA extracts and normalized to nuclear DNA and compared to untreated IgG 0 Gy. Data are reported as means+/−S.D. of 3 independent experiments. (***p<0.001, ****p<0.0001).

[6] = test system: BMP dependent CD105 signaling in 22Rv1; test: BMP-stimulated phosphorylated-SMAD1/5 and ID1 expression; settings: stimulated with 50 ng/mL BMP
Experimental: FIG. 18A) Cell surface CD105 expression was measured in PC3, C42b, and 22Rv1 72 hours after 4 Gy irradiation treatment by FACS analysis and compared to cells not irradiated (control). FIG. 18B) Cell surface CD105 expression was measured in cell lines following a dose range of irradiation (0, 2, 4, or 6 Gy). FIG. 18C) The durability of cell surface CD105 expression in 22Rv1 was determined 0, 0.5, 4, 8, 24, 48, 72, 120, and 168 hours following 4 Gy irradiation. CD105 cell surface expression fold change was normalized to levels expressed prior to irradiation. FIG. 18D) Western blot for phosphorylated-Smad1/5 was measured in CW22Rv1 cells in the presence or absence of serum starvation and treatment with 50 ng/ml BMP4 or 1 μg/ml TRC105. β-actin expression served as the loading control. FIG. 18E) Annexin-V expression was measured in 22Rv1 cells by FACS analysis 5 days following 4 Gy irradiation in the presence and absence of TRC105. FIG. 18F) Clonogenic assay was measured 10 days following irradiation of CW22Rv1 and C42b cells in a dose range of 0 to 6 Gy in the presence of 1 μg/ml IgG or TRC105. […]
Total RNA was extracted using the RNeasy kit (Qiagen). […] Quantitative RT-PCR was performed with 5 replicates using the Step One Real-Time PCR system (Applied Biosystems). […] For RNA-sequencing, Ion Proton AmpliSeq Transcriptome RNA Sequencing was performed achieving an average of 3M reads. […]

[7] = test system: CW22Rv1; test: Clonogenic survival assay with radiation; settings: 1 μg/ml TRC105 vs IgG, 0 to 6 Gy; p<0.001
Experimental: (§3) FIG. 18A) Cell surface CD105 expression was measured in PC3, C42b, and 22Rv1 72 hours after 4 Gy irradiation treatment by FACS analysis and compared to cells not irradiated (control). FIG. 18B) Cell surface CD105 expression was measured in cell lines following a dose range of irradiation (0, 2, 4, or 6 Gy). FIG. 18C) The durability of cell surface CD105 expression in 22Rv1 was determined 0, 0.5, 4, 8, 24, 48, 72, 120, and 168 hours following 4 Gy irradiation. CD105 cell surface expression fold change was normalized to levels expressed prior to irradiation. FIG. 18D) Western blot for phosphorylated-Smad1/5 was measured in CW22Rv1 cells in the presence or absence of serum starvation and treatment with 50 ng/ml BMP4 or 1 μg/ml TRC105. β-actin expression served as the loading control. FIG. 18E) Annexin-V expression was measured in 22Rv1 cells by FACS analysis 5 days following 4 Gy irradiation in the presence and absence of TRC105. FIG. 18F) Clonogenic assay was measured 10 days following irradiation of CW22Rv1 and C42b cells in a dose range of 0 to 6 Gy in the presence of 1 μg/ml IgG or TRC105. Data are reported as a mean+/−S.D. (**p<0.01, ***p<0.001).

[8] = test system: C4-2B; test: Clonogenic survival assay with radiation; settings: 1 μg/ml TRC105 vs IgG, 0 to 6 Gy; p<0.001
Experimental: as §3

[9] = test system: ID1 mRNA expression by Rv1 cells and mouse wild-type fibroblasts; test: Species specificity of CD105 antagonists, BMP-induced ID1 mRNA; settings: 1 μg/ml; BMP 50 ng/mL, 6 hours
Experimental: All cells were pre-treated overnight in serum free media, then incubated with BMP (50 ng/mL) in the presence or absence of differing concentrations of concentrations of TRC105 or M1043 for 6 hours (mean+/−SD). Within each group, the left column depicts human PCa and right column depicts mouse fibroblasts.
as §2

## TRC105: partially humanized monoclonal antibody that blocks BMP signaling; human-specific CD105 (endoglin) neutralizing antibody from Tracon Pharmaceuticals
[1]
  survival proteins (survivin and full length PARP1): precipitous down regulation of survival proteins
[2]; 30 minutes post radiation, p<0.001
  tail moment: significant increase in tail moment
[2]; after 24 hours
  tail moment: no significant difference
[3]
  radiation induced SIRT1 expression: abrogated radiation induced SIRT1 expression
[4]
  radiation induced SIRT1 expression: abrogated radiation induced SIRT1 expression
[5]
  mtDNA: dramatic down regulation of mtDNA
[6]
  minimum dose that effectively blocked phosphorylated-SMAD1/5 activation and expression of ID1: 1 µg/mL
[7]
  radiation sensitivity, clonogenic survival: sensitized prostate cancer cells to radiation
[8]
  radiation sensitivity, clonogenic survival: sensitized prostate cancer cells to radiation
[9]
  cross-species reactivity: no cross-species reactivity

From patent US20200239587A1, “SENSITIZATION OF TUMORS TO THERAPIES THROUGH ENDOGLIN ANTAGONISM” (Cedars-Sinai Medical Center, priority 2016, published 2020)
